In patent US20260139006A1, “CYCLIC PEPTIDE AS INHIBITORS OF FREE-LIVING AMOEBA” (Purdue Research Foundation, priority 2024, published 2026):

Assay: Mammalian cytotoxicity counter screening (CellTiter-Glo)
Type: cell-based
Details: human; read-out: A549 IC50 (cytotoxicity)
Protocol: Cytotoxicity of the cyclic peptides was also determined by using the CellTiter-Glo 2.0® assay on A549 human lung carcinoma cells. A549 cells were seeded at a concentration of 1.6×10^4 cells/mL in 96-well plates in the presence of serially diluted compounds, as described above. DMSO (1%) and 100 μM of chlorhexidine were used as the negative and positive controls. A549 were grown in F12K medium supplemented with 10% FBS and 1% penicillin/streptomycin antibiotics. […] The total volume of each well was 100 μL, containing 10 μL compounds and 90 μL cells, and plates were incubated at 37° C., 5% CO2 for 72 hours. At the 72-hours time point, CellTiter-Glo 2.0 Reagent® was added to all the wells and read by the SpectraMax® i3X plate reader as described above. Curve fitting using non-linear regression was carried out using the average of replicates and the Levenberg-Marquardt algorithm, using DMSO as the normalization control, as defined in CDD Vault. The selectivity index (SI) was calculated by using the equation: SI=(IC50 of A549's)/(IC50 of Balamuthia mandrillaris) to determine the specificity of inhibitors.

N=C(N)c1ccc(OCCCCCOc2ccc(C(=N)N)cc2)cc1 [pentamidine]
IC50 at 72 h: 12.8 µM
